Experimental data as given in patent US20260048060A1, “POLYCYCLIC THYROID HORMONE b RECEPTOR AGONIST AND USE THEREOF” (CASCADE PHARMACEUTICALS, INC., priority 2022, published 2026).

Target: T1, THRβ (Homo sapiens, UniProt P10828)
T1 construct: expressed in transfected cells; host or cells: HEK293T
T1 sequence (P10828 217-461): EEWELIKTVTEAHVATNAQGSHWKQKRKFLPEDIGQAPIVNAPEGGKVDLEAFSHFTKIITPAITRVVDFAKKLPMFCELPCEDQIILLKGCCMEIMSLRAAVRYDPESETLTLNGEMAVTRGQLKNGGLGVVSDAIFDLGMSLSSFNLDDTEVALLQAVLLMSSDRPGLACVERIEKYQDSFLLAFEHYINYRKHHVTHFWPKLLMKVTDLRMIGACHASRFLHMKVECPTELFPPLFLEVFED
Assay: Reporter gene (GAL4-THRβ-LBD / Dual-Glo luciferase) agonist activity assay in HEK293T cells
Assay type: cell-based
Details: ratio of reporter gene EC50 values THRα/THRβ
Description: Experimental Example 1: Detection of THRα and THRβ Agonist Activities of Compounds Based on Reporter Gene Activity Assay Method
1.1 Construction and Preparation of Plasmids pGAL4-THR-LBD and pG5-Luc
The pGAL4-THRα-LBD and pGAL4-THRβ-LBD plasmids used in the reporter gene assay system were constructed by a conventional molecular cloning method comprising the following main steps: the cDNA sequences of THRα (NM_003250) and THRβ (NM_000461) corresponding to the amino acid sequences of THRα (163-407AA) and THRβ (217-461AA) were inserted into the BamHI and NotI enzyme digestion sites of the pGAL4 vector by the PCR technique respectively to obtain the pGAL4-THRα-LBD and pGAL4-THRβ-LBD plasmids; the pG5-Luc (#E249A) and pRL-TK (#E2241) plasmids were purchased from Promega; the plasmids were transfected into the E. coli DH5α by the CaCl2 method, and after further culture and amplification, the plasmids were purified by Plasmid Extraction Kits (TIANGEN, #D107) to obtain the corresponding plasmid DNAs.
1.2 Co-Transfection of Plasmids into HEK293T Cells and Treatment with Compounds
The HEK293T cells were inoculated into a 96-well plate at a density of 1×10^4/well the day before plasmid transfection. Cell transfection was conducted according to the instructions of the transfection reagent FuGENE® HD (Promega, #E2311). The main steps were as follows: taking one well as an example here, the plasmids pGAL4-THRα-LBD or pGAL4-THRβ-LBD, pG5-Luc, and pRL-TK were added in the proportions of 20 ng, 50 ng, and 5 ng to 10 μL of Opti-MEM™ I medium (Gibco, #11058021) and mixed well; subsequently, 0.25 uL of FuGENE® HD was added, mixed well, and then left at room temperature for 5 min; afterwards, 10 μL of the mixture was added to the cell wells containing 100 μL of culture medium. After cell co-transfection for 6 h, the compound was diluted in a 3-fold gradient with dimethyl sulfoxide at the highest concentration of 1 uM. The compound was added to the cell culture medium at a total of 10 concentrations for treatment for 24 h. There were a total of two duplicate wells for each concentration. Triiodothyronine (T3) was used as the positive control.
1.3 Dual-Glo Luciferase Assay
After the cells were treated with the compound for 24 h, the cells were assayed according to the instructions of Dual-Glo® Luciferase Assay System (Promega, #E2940). The main steps were as follows: 50 μL of culture medium was aspirated from each well and discarded, and then 50 μL of Dual-Glo® Luciferase reagent was added and oscillated at room temperature for 10 min; 80 μL of lysis reaction solution was measured into a white opaque optiPlate-96-well plate, and the luminescence signal value (Firefly-Luc) of the Firefly luciferase was detected using an MD i3x multi-mode microplate reader; 40 μL of Dual-Glo® Stop & Glo® reagent was then added, and oscillated at room temperature for 10 min; the luminescence signal value (Renilla-Luc) of the Renilla luciferase was then detected using an MD i3x multi-mode microplate reader. The Firefly-Luc/Renilla-Luc ratio was used as the activation activity of the compound against THR, and the ratio in the solvent DMSO group was used for normalization; the dose-response curve was fitted with four parameters using the GraphPad Prism6.0 software, and the EC50 value was calculated.

SMILES | Selectivity (THRα/THRβ)
NC(=O)c1cc(Cl)ccc1OCc1c(Cl)cc(-n2ncc(=O)[nH]c2=O)cc1Cl [Compound 32] | † (†: 5 ≥ THRα/β;)
NC(=O)c1cc(F)ccc1OCc1c(Cl)cc(-n2ncc(=O)[nH]c2=O)cc1Cl [Compound 37] | † (†: 5 ≥ THRα/β;)
CNC(=O)c1ccccc1OCc1c(Br)cc(-n2ncc(=O)[nH]c2=O)cc1Br [Compound 39] | † (†: 5 ≥ THRα/β;)
CCNC(=O)c1ccccc1OCc1c(Cl)cc(-n2ncc(=O)[nH]c2=O)cc1Cl [Compound 43] | † (†: 5 ≥ THRα/β;)
CNC(=O)c1cscc1OCc1c(Cl)cc(-n2ncc(=O)[nH]c2=O)cc1Cl [Compound 46] | † (†: 5 ≥ THRα/β;)
CNC(=O)c1sccc1OCc1c(Cl)cc(-n2ncc(=O)[nH]c2=O)cc1Cl [Compound 47] | † (†: 5 ≥ THRα/β;)
CNC(=O)c1ccccc1OCc1c(Cl)cc(-n2nc(C)c(=O)[nH]c2=O)cc1Cl [Compound 51] | † (†: 5 ≥ THRα/β;)
CNC(=O)c1ccccc1OCc1c(Cl)cc(-n2nc(C(F)(F)F)c(=O)[nH]c2=O)cc1Cl [Compound 52] | † (†: 5 ≥ THRα/β;)
CNC(=O)c1ccccc1OCc1c(Br)cc(-n2nc(C(F)F)c(=O)[nH]c2=O)cc1Br [Compound 56] | †† (††: 10 ≥ THRα/β > 5;)
NC(=O)c1ccccc1OCc1c(Br)cc(-n2nc(C(F)F)c(=O)[nH]c2=O)cc1Br [Compound 57] | † (†: 5 ≥ THRα/β;)
CNC(=O)c1ccccc1OCc1c(Cl)cc(-c2nn(C)c(=O)[nH]c2=O)cc1Cl [Compound 59] | † (†: 5 ≥ THRα/β;)
CNC(=O)c1ccccc1OCc1c(Cl)cc(-c2nn(C(F)F)c(=O)[nH]c2=O)cc1Cl [Compound 60] | † (†: 5 ≥ THRα/β;)
CNC(=O)c1ccccc1OCc1c(C)cc(-n2ncc(=O)[nH]c2=O)cc1Cl [Compound 61] | † (†: 5 ≥ THRα/β;)
CNC(=O)c1cscc1OCc1c(Cl)cc(-n2nc(C(F)F)c(=O)[nH]c2=O)cc1Cl [Compound 62] | †† (††: 10 ≥ THRα/β > 5;)
CNC(=O)c1sccc1OCc1c(Cl)cc(-n2nc(C(F)F)c(=O)[nH]c2=O)cc1Cl [Compound 63] | † (†: 5 ≥ THRα/β;)
NC(=O)c1cc(Br)ccc1OCc1c(Cl)cc(-n2ncc(=O)[nH]c2=O)cc1Cl [Compound 64] | † (†: 5 ≥ THRα/β;)
Cc1ccc(OCc2c(Cl)cc(-n3ncc(=O)[nH]c3=O)cc2Cl)c(C(N)=O)c1 [Compound 68] | † (†: 5 ≥ THRα/β;)
NC(=O)c1cc(-n2cccc2)ccc1OCc1c(Cl)cc(-n2ncc(=O)[nH]c2=O)cc1Cl [Compound 70] | †† (††: 10 ≥ THRα/β > 5;)
CNC(=O)c1ccc(OCc2c(Cl)cc(-n3ncc(=O)[nH]c3=O)cc2Cl)cc1 [Compound 76] | † (†: 5 ≥ THRα/β;)
NC(=O)c1cc(C2CC2)ccc1OCc1c(Cl)cc(-n2ncc(=O)[nH]c2=O)cc1Cl [Compound 82] | †† (††: 10 ≥ THRα/β > 5;)
Cc1ccc(OCc2c(Br)cc(-n3ncc(=O)[nH]c3=O)cc2Br)c(C(N)=O)c1 [Compound 83] | †††† (††††: 100 ≥ THRα/β > 20)
CNC(=O)c1cc(C)ccc1OCc1c(Cl)cc(-n2ncc(=O)[nH]c2=O)cc1Cl [Compound 84] | † (†: 5 ≥ THRα/β;)
CNC(=O)c1cc(C)ccc1OCc1c(Br)cc(-n2ncc(=O)[nH]c2=O)cc1Br [Compound 85] | †††† (††††: 100 ≥ THRα/β > 20)
Cc1ccc(OCc2c(Cl)cc(-n3nc(C(F)F)c(=O)[nH]c3=O)cc2Cl)c(C(N)=O)c1 [Compound 86] | †† (††: 10 ≥ THRα/β > 5;)
Cc1ccc(OCc2c(Br)cc(-n3nc(C(F)F)c(=O)[nH]c3=O)cc2Br)c(C(N)=O)c1 [Compound 87] | † (†: 5 ≥ THRα/β;)
CNC(=O)c1cc(C)ccc1OCc1c(Cl)cc(-n2nc(C(F)F)c(=O)[nH]c2=O)cc1Cl [Compound 88] | † (†: 5 ≥ THRα/β;)

The remaining lines, values ahead:

Selectivity (THRα/THRβ) | SMILES
† (†: 5 ≥ THRα/β;) | CNC(=O)c1cc(C)ccc1OCc1c(Br)cc(-n2nc(C(F)F)c(=O)[nH]c2=O)cc1Br [Compound 89]
††† (†††: 20 ≥ THRα/β > 10;) | CNC(=O)c1sccc1OCc1c(Br)cc(-n2nc(C(F)F)c(=O)[nH]c2=O)cc1Br [Compound 90]
††† (†††: 20 ≥ THRα/β > 10;) | CNC(=O)c1cscc1OCc1c(Br)cc(-n2nc(C(F)F)c(=O)[nH]c2=O)cc1Br [Compound 91]
† (†: 5 ≥ THRα/β;) | CNC(=O)c1ccccc1OCc1c(Cl)cc(-n2nc(CF)c(=O)[nH]c2=O)cc1Cl [Compound 93]
†††† (††††: 100 ≥ THRα/β > 20) | NC(=O)c1cc(C2=CCCCC2)ccc1OCc1c(Cl)cc(-n2ncc(=O)[nH]c2=O)cc1Cl [Compound 99]
†††† (††††: 100 ≥ THRα/β > 20) | NC(=O)c1cc(C2CCCCC2)ccc1OCc1c(Cl)cc(-n2ncc(=O)[nH]c2=O)cc1Cl [Compound 100]
† (†: 5 ≥ THRα/β;) | NC(=O)c1cc(C2=CCCC2)ccc1OCc1c(Cl)cc(-n2ncc(=O)[nH]c2=O)cc1Cl [Compound 101]
†† (††: 10 ≥ THRα/β > 5;) | NC(=O)c1cc(C2CCCC2)ccc1OCc1c(Cl)cc(-n2ncc(=O)[nH]c2=O)cc1Cl [Compound 102]
† (†: 5 ≥ THRα/β;) | [2H]C([2H])(Oc1ccccc1C(=O)NC)c1c(Cl)cc(-n2nc(C(F)F)c(=O)[nH]c2=O)cc1Cl [Compound 103]
†† (††: 10 ≥ THRα/β > 5;) | [2H]C([2H])([2H])NC(=O)c1ccccc1OCc1c(Cl)cc(-n2nc(C(F)F)c(=O)[nH]c2=O)cc1Cl [Compound 104]
† (†: 5 ≥ THRα/β;) | CNC(=O)c1ccccc1OCc1c(Cl)cc(-n2nc(C(F)F)c(=O)[nH]c2=O)cc1Br [Compound 105]
